36 compounds from PubChem BioAssay (NCI) can be followed below.

For this experiment, the system named is MDA-MB-468 breast. The experiment can be described thus: NCI anticancer screen, dose series, 48 h.

Where “and” joins values, the source holds several entries; their conditions need not be identical. Equal entries are not always repeated.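 Where inhibition never reached the appropriate level, the endpoint shown equals the highest concentration tested. Otherwise, values were interpolated linearly from a five-concentration, 48-hour dose response in 96-well plates. GI50 marks 50% less growth. The concentration for full growth arrest is given as TGI.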 Where a SMILES comes first, the peptide text is derived from it. The star is where a group is joined. Trt = c1ccc(C(c2ccccc2)(c2ccccc2)*)cc1; Cbz = O=C(OCc1ccccc1)*

Regarding `Nc1c(C(=O)Nc2cccc3ccccc23)sc2nc3c(cc12)C(=O)CCC3`, the GI50 was 195 nM and the TGI was over 45 µM.
`COc1ccc(C(=O)c2cc3c(N)c(C(=O)Nc4cccc(OC)c4)sc3nc2C)cc1`: the GI50 is 396 nM.
In the case of `COc1ccc(C2=Nc3c/c(=C\c4c(O)[nH]c5cc(Cl)ccc45)ccc3=N2)cc1`, the GI50 is 3060 nM and the TGI was 10.4 µM.
The corresponding values for `O=C(C=C=Nc1ccccc1)C(=O)N=C=Cc1ccccc1` are 2100 nM and 4.93 µM.
The corresponding values for `C=CC(C)(O)CC/C=C(\CO)C(=O)OC1C(C)OC(O[C@](C)(C=C)CC/C=C(\CO)C(=O)O[C@H]2C[C@@]3(C(=O)OC4OC(CO)C(O)C(O)C4OC4OC(C)C(OC5OC(CO)C(O)C5O)C(OC5OC(CO)C(O)C(O)C5O)C4O)C(CC2(C)C)C2=CCC4[C@@]5(C)CC[C@H](OC6OC(COC7OC(C)C(O)C(O)C7OC7OCC(O)C(O)C7O)C(O)C(O)C6NC(C)=O)C(C)(C)C5CC[C@@]4(C)[C@]2(C)C[C@H]3O)C(O)C1O` (stereo partly specified) are 189 nM and 0.848 µM.
Turning to `Cc1c(Cl)cccc1NC(=O)c1sc2nc3c(cc2c1N)CCCC3`, the GI50 was 394 nM and the TGI is over 100 µM.
The corresponding values for `CN=C(N)N/N=C(\C)c1ccc2c(c1)Cc1ccccc1-2` are 1790 nM and 4.4 µM.
The matching figures for `Cc1c(Cl)c(C)c(Cc2c(C)c(Cl)c(C)c(Cl)c2O)c(O)c1Cl`: 1820 nM and 8.4 µM.
With `COc1cccc2c1cc1c3c(cc4c(c32)OCO4)C(=O)N1`, the GI50 is 2040 nM and the TGI was found to be 6.22 µM.
With `Nc1nc(N)c2c(n1)NC(c1sc(Cl)nc1Cl)CC(c1ccc3c(c1)OCO3)=N2` (stereo unspecified), the GI50 was 1650 nM and the TGI was found to be 13.3 µM.
With `Cn1cc(-c2nc(N[C@@H]3CCCC[C@@H]3N)c(F)c3c2C(=O)NC3)cn1`, the GI50 was 13000 nM and 16900 nM; the TGI is 44.9 µM and 69.9 µM.
For the compound `O=C(Nc1cccc(C(F)(F)F)c1)c1cc2ccccc2cc1O`, the GI50 was 2200 nM and the TGI was over 51.6 µM.
Regarding `Cc1cc2nc3c4ccc(Br)cc4n(CCN(C)C)c3nc2cc1C`, the GI50 was 1210 nM and the TGI stood at 2.91 µM.
With `NC(=O)c1ccc(N(C(N)=O)c2c(F)cccc2F)nc1-c1ccc(F)cc1F`, the GI50 was over 100000 nM and the TGI is over 100 µM.
For `O=C(Nc1nc2ccccc2s1)c1cc(-c2ccc(F)cc2)n2nc(-c3ccccc3)cc2n1`, the GI50 was 5180 nM and the TGI stood at 36 µM.
Take `CCCN1CCC=C(c2ccc(Nc3nc(Nc4ccccc4C(N)=O)c4cc[nH]c4n3)c(C)c2)C1`: the GI50 was over 14600 nM and the TGI is over 25 µM.
The corresponding values for `O=C1/C(=C\c2ccccc2)C2OCC=C3CN4CCC56c7ccccc7N1C5C2C3CC46` (stereo unspecified) are 3310 nM and 26.1 µM.
The corresponding values for `Cn1cc(C2=C(c3cn(CCCCC(=N)N)c4ccccc34)C(=O)NC2=O)c2ccccc21` are 9810 nM and over 25 µM.
The matching figures for `COc1ccc(-c2n/c(=C\c3c(O)[nH]c4ccccc34)cc3c2=Nc2ccccc2-3)cc1`: 368 nM and 1.43 µM.
Turning to `Cc1ccc(-c2n[nH]c(=O)c3noc(-c4ccc(C)cc4)c23)cc1`, the GI50 is 370 nM and the TGI came to 4.88 µM.
Consider `O=C(/C=C/c1cccc2ccccc12)Nc1ncc(Cc2ccccc2)s1`, for which the GI50 is 665 nM and the TGI is over 24.9 µM.
The corresponding values for `COc1cc(/C=N/NC(=O)c2ccccc2Nc2cccc(C(F)(F)F)c2)cc(OC)c1OC` are 1750 nM and 11.8 µM.
With `COc1cc(OC)c(/C=C/S(=O)(=O)Cc2ccc(OC)c(NCC(=O)NO)c2)c(OC)c1`, the GI50 is 29.3 nM and the TGI was over 100 µM.
The matching figures for `CCN(CC)Cc1cc(Nc2c3ccccc3nc3cc(Cl)ccc23)ccc1O`: 1500 nM and 3.06 µM.
In the case of `O=C(CCCCCCCCC(=O)N/N=C\c1cc(Cl)ccc1O)N/N=C\c1cc(Cl)ccc1O`, the GI50 is 1440 nM and the TGI worked out at 7.36 µM.
In the case of `C=C(C)[C@@H]1CC[C@]2(C(=O)NC(C)=O)CC[C@]3(C)[C@H](CC[C@@H]4[C@@]5(C)CCCNC(C)(C)[C@@H]5CC[C@]43C)[C@@H]12`, the GI50 was 1600 nM and the TGI is 3.1 µM.
The matching figures for H-QIYKKYRTWYRKAWKVLGKV-NH2: 10900 nM and 41.9 µM.
As for `O=C(NOCCO)c1cc(CN2OCCCC2=O)c(F)c(F)c1Nc1ccc(I)cc1F`, the GI50 was 14200 nM and > 10000 nM; the TGI is 66.7 µM and > 10 µM.
For `CCOC(=O)c1c(NCC(=O)Nc2ccc(Br)cc2)sc2c1CCCC2`, the GI50 was 1950 nM and the TGI was 4.53 µM.
The corresponding values for `COC(=O)C(CSC(c1ccccc1)(c1ccccc1)c1ccccc1)NC(=O)C(CC(N)=O)NC(=O)OCc1ccccc1` (stereo not drawn) (Cbz-Asn-Cys(Trt)-OMe; configuration not given here) are 3130 nM and 14.6 µM.
In the case of `C/C(=N\NC(=O)CSc1nc2sc3c(c2c(=O)n1-c1ccccc1)CCC(C)C3)c1ccc(Cl)cc1` (stereo unspecified), the GI50 is 1550 nM and the TGI came to 5.92 µM.
For `COc1cc(Cn2c(-c3ccccc3)cc3c2-c2oncc2CC3)cc(OC)c1`, the GI50 is 211 nM and the TGI stood at 0.745 µM.
Consider `Cc1cc(Nc2nc(-c3ccncc3)nc3ccccc23)n[nH]1`, for which the GI50 is 6810 nM and the TGI was over 100 µM.
As for `CCCCCCCCCCSC(=N)N`, the GI50 was 1660 nM and the TGI is 3.2 µM.
The matching figures for `Oc1ccc(Cl)cc1/C=N\NC(=S)N/N=C/c1cc(Cl)ccc1O`: 1760 nM and 7.35 µM.
The matching figures for `C=C(C)[C@@H]1CC[C@]2(CO)CC[C@]3(C)[C@H](CC[C@@H]4[C@@]5(C)CC[C@H](NCO)C(C)(C)[C@@H]5CC[C@]43C)[C@@H]12`: 854 nM and 1.71 µM.
